Data from patent US11554171B2, “Compounds and methods for the targeted degradation of bromodomain-containing proteins” (Arvinas Operations, Inc., priority 2015, dated 2023).

Test system: c-myc in 22RV-1 cells
Experiment: Human c-myc ELISA assay
Assay type: cell-based
Settings: Homo sapiens; for Emax: 22Rv1, 18 h, read-out: Degradation of BRD4: Maximum inhibition (%) c-Myc ELISA in 22RV1 cells; for DC50: 22Rv1, read-out: Degradation of BRD4: DC50 (uM) c-Myc ELISA in 22RV1 cells
Outline: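 c-myc levels measured by ELISA in RIPA lysates of 22RV-1 cells, calibrated with a 333-0 pg/ml standard curve. Lysates came from cells exposed for 18 h to an 8-point, 1:3 dose series starting at 300 nM or 1 μM final in 0.1% DMSO. Suppression potency given as DC50.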

| SMILES | DC50 [µM] | Emax [%] |
| --- | --- | --- |
| Cc1sc2c(c1C)C(c1ccc(Cl)cc1)=N[C@@H](CC(=O)N[C@H]1C[C@H](Oc3ccc(CC(=O)N[C@H](C(=O)N4C[C@H](O)C[C@H]4C(=O)N[C@@H](C)c4ccc(-c5ncon5)cc4)C(C)(C)C)cc3)C1)c1nnc(C)n1-2 [Example 281] | 0.01 to 0.1 | 91.4 |
| Cc1sc2c(c1C)C(c1ccc(Cl)cc1)=N[C@@H](CC(=O)N[C@H]1C[C@H](Oc3ccc(CC(=O)N[C@H](C(=O)N4C[C@H](O)C[C@H]4C(=O)N[C@@H](C)c4ccc(C(=O)N5CCC5)cc4)C(C)(C)C)cc3)C1)c1nnc(C)n1-2 [Example 282] | > 1 | 25.4 |
| Cc1ncsc1-c1ccc([C@H](C)NC(=O)[C@@H]2C[C@@H](O)CN2C(=O)[C@@H](C(C)C)n2cc(-c3cnc(O[C@H]4C[C@H](NC(=O)C[C@@H]5N=C(c6ccc(Cl)cc6)c6c(sc(C)c6C)-n6c(C)nnc65)C4)cn3)cn2)cc1 [Example 283] | 0.01 to 0.1 | 89.5 |
| Cc1ncsc1-c1ccc([C@H](C)NC(=O)[C@@H]2C[C@@H](O)CN2C(=O)[C@H](C(C)C)n2cc(-c3cnc(O[C@H]4C[C@H](NC(=O)C[C@@H]5N=C(c6ccc(Cl)cc6)c6c(sc(C)c6C)-n6c(C)nnc65)C4)cn3)cn2)cc1 [Example 284] | < 0.01 | 93.4 |
| Cc1ncoc1-c1ccc([C@H](C)NC(=O)[C@@H]2C[C@@H](O)CN2C(=O)[C@@H](C(C)C)n2cc(-c3cccc(O[C@H]4C[C@@H](NC(=O)C[C@@H]5N=C(c6ccc(Cl)cc6)c6c(sc(C)c6C)-n6c(C)nnc65)C4)c3)cn2)cc1 [Example 285] | > 1 | 44.4 |
| Cc1ncoc1-c1ccc([C@H](C)NC(=O)[C@@H]2C[C@@H](O)CN2C(=O)C(C(C)C)n2cc(-c3cccc(O[C@H]4C[C@@H](NC(=O)C[C@@H]5N=C(c6ccc(Cl)cc6)c6c(sc(C)c6C)-n6c(C)nnc65)C4)c3)cn2)cc1 (stereo partly drawn) [Example 286] | 0.01 to 0.1 | 93 |
| Cc1sc2c(c1C)C(c1ccc(Cl)cc1)=N[C@@H](CC(=O)N[C@H]1C[C@@H](Oc3cc(-c4cnn([C@@H](C(=O)N5C[C@H](O)C[C@H]5C(=O)N[C@@H](C)c5ccc(-n6ccnc6C)cc5)C(C)C)c4)ccn3)C1)c1nnc(C)n1-2 [Example 287] | > 1 | 17.3 |
| Cc1ncsc1-c1ccc([C@H](C)NC(=O)[C@@H]2C[C@@H](O)CN2C(=O)[C@@H](NC(=O)COc2ccc(N3CCN(C(=O)C[C@@H]4N=C(c5ccc(Cl)cc5)c5c(sc(C)c5C)-n5c(C)nnc54)CC3)nc2)C(C)(C)C)cc1 [Example 288] | < 0.01 | 98 |
| Cc1sc2c(c1C)C(c1ccc(Cl)cc1)=N[C@@H](CC(=O)N[C@H]1C[C@@H](Oc3cc(-c4cnn([C@H](C(=O)N5C[C@H](O)C[C@H]5C(=O)N[C@@H](C)c5ccc(-n6ccnc6C)cc5)C(C)C)c4)ccn3)C1)c1nnc(C)n1-2 [Example 289] | 0.1 to 1 | 93.8 |
| Cc1sc2c(c1C)C(c1ccc(Cl)cc1)=N[C@@H](CC(=O)N[C@H]1C[C@@H](Oc3cccc(-c4cnn([C@@H](C(=O)N5C[C@H](O)C[C@H]5C(=O)N[C@@H](C)c5ccc(-c6nccn6C)cc5)C(C)C)c4)c3)C1)c1nnc(C)n1-2 [Example 290] | > 1 | 15.5 |
| Cc1sc2c(c1C)C(c1ccc(Cl)cc1)=N[C@@H](CC(=O)N[C@H]1C[C@@H](Oc3cccc(-c4cnn([C@H](C(=O)N5C[C@H](O)C[C@H]5C(=O)N[C@@H](C)c5ccc(-c6nccn6C)cc5)C(C)C)c4)c3)C1)c1nnc(C)n1-2 [Example 291] | > 1 | 22.2 |
| Cc1sc2c(c1C)C(c1ccc(Cl)cc1)=N[C@@H](CC(=O)N[C@H]1C[C@@H](Oc3cc(-c4cnn([C@@H](C(=O)N5C[C@H](O)C[C@H]5C(=O)N[C@@H](C)c5ccc(-c6nccn6C)cc5)C(C)C)c4)ccn3)C1)c1nnc(C)n1-2 [Example 292] | > 1 | 10 |
| Cc1ncsc1-c1ccc([C@H](C)NC(=O)[C@@H]2C[C@@H](O)CN2C(=O)[C@@H](NC(=O)CN2CCC(O[C@H]3C[C@H](NC(=O)C[C@@H]4N=C(c5ccc(Cl)cc5)c5c(sc(C)c5C)-n5c(C)nnc54)C3)CC2)C(C)(C)C)cc1 [Example 306, (2S,4R)-1-[(2S)-3,3-dimethyl-2-(2-{4-[(1,3-trans)-3-{2-[(9S)-7-(4-chlorophenyl)-4,5,13-trimethyl-3-thia-1,8,11,12-tetraazatricyclo[8.3.0.0^2,^6]trideca-2(6),4,7,10,12-pentaen-9-yl]acetamido}cyclobutoxy]piperidin-1-yl}acetamido)butanoyl]-4-hydroxy-N-[(1S)-1-[4-(4-methyl-1,3-thiazol-5-yl)phenyl]ethyl]pyrrolidine-2-carboxamide] | < 0.01 | 100 |

The next lines start with results.

| DC50 [µM] | SMILES | Emax [%] |
| --- | --- | --- |
| > 1 | Cc1sc2c(c1C)C(c1ccc(Cl)cc1)=N[C@@H](CC(=O)N[C@H]1C[C@@H](Oc3cc(-c4cnn([C@H](C(=O)N5C[C@H](O)C[C@H]5C(=O)N[C@@H](C)c5ccc(-c6nccn6C)cc5)C(C)C)c4)ccn3)C1)c1nnc(C)n1-2 [Example 293] | 9.5 |
| > 1 | Cc1ncoc1-c1ccc(CNC(=O)[C@@H]2C[C@@H](O)CN2C(=O)[C@@H](C(C)C)n2cc(-c3ccnc(O[C@H]4C[C@@H](NC(=O)C[C@@H]5N=C(c6ccc(Cl)cc6)c6c(sc(C)c6C)-n6c(C)nnc65)C4)c3)cn2)cc1 [Example 294] | 43.4 |
| 0.1 to 1 | Cc1ncoc1-c1ccc(CNC(=O)[C@@H]2C[C@@H](O)CN2C(=O)[C@H](C(C)C)n2cc(-c3ccnc(O[C@H]4C[C@@H](NC(=O)C[C@@H]5N=C(c6ccc(Cl)cc6)c6c(sc(C)c6C)-n6c(C)nnc65)C4)c3)cn2)cc1 [Example 295] | 93.8 |
| 0.1 to 1 | Cc1ncsc1-c1ccc(CNC(=O)[C@@H]2C[C@@H](O)CN2C(=O)[C@H](c2cc(OCCC(F)(F)CCNC(=O)C[C@@H]3N=C(c4ccc(Cl)cc4)c4c(sc(C)c4C)-n4c(C)nnc43)no2)C(C)C)cc1 [Example 296, (2S,4R)-1-[(2S)-2-{3-[(5-{2-[(9S)-7-(4-chlorophenyl)-4,5,13-trimethyl-3-thia-1,8,11,12-tetraazatricyclo[8.3.0.0^2,^6]trideca-2(6),4,7,10,12-pentaen-9-yl]acetamido}-3,3-difluoropentyl)oxy]-1,2-oxazol-5-yl}-3-methylbutanoyl]-4-hydroxy-N-{[4-(4-methyl-1,3-thiazol-5-yl)phenyl]methyl}pyrrolidine-2-carboxamide] | 71.4 |
| < 0.01 | Cc1ncsc1-c1ccc(CNC(=O)[C@@H]2C[C@@H](O)CN2C(=O)[C@@H](c2cc(OCCC(F)(F)CCNC(=O)C[C@@H]3N=C(c4ccc(Cl)cc4)c4c(sc(C)c4C)-n4c(C)nnc43)no2)C(C)C)cc1 [Example 297, (2S,4R)-1-[(2R)-2-{3-[(5-{2-[(9S)-7-(4-chlorophenyl)-4,5,13-trimethyl-3-thia-1,8,11,12-tetraazatricyclo[8.3.0.0^2,^6]trideca-2(6),4,7,10,12-pentaen-9-yl]acetamido}-3,3-difluoropentyl)oxy]-1,2-oxazol-5-yl}-3-methylbutanoyl]-4-hydroxy-N-{[4-(4-methyl-1,3-thiazol-5-yl)phenyl]methyl}pyrrolidine-2-carboxamide] | 97 |
| > 1 | Cc1sc2c(c1C)C(c1ccc(Cl)cc1)=N[C@@H](CC(=O)N[C@H]1C[C@@H](Oc3cccc(-c4cnn([C@@H](C(=O)N5C[C@H](O)C[C@H]5C(=O)N[C@@H](C)c5ccc(-n6ccnc6C)cc5)C(C)C)c4)c3)C1)c1nnc(C)n1-2 [Example 298] | 25.5 |
| 0.1 to 1 | Cc1sc2c(c1C)C(c1ccc(Cl)cc1)=N[C@@H](CC(=O)N[C@H]1C[C@@H](Oc3cccc(-c4cnn([C@H](C(=O)N5C[C@H](O)C[C@H]5C(=O)N[C@@H](C)c5ccc(-n6ccnc6C)cc5)C(C)C)c4)c3)C1)c1nnc(C)n1-2 [Example 299] | 72.5 |
| > 1 | Cc1ncsc1-c1ccc([C@H](C)NC(=O)[C@@H]2C[C@@H](O)CN2C(=O)[C@@H](C(C)C)n2cc(-c3ccnc(O[C@H]4C[C@@H](NC(=O)C[C@@H]5N=C(c6ccc(Cl)cc6)c6c(sc(C)c6C)-n6c(C)nnc65)C4)n3)cn2)cc1 [Example 300] | 24 |
| 0.01 to 0.1 | Cc1ncsc1-c1ccc([C@H](C)NC(=O)[C@@H]2C[C@@H](O)CN2C(=O)[C@H](C(C)C)n2cc(-c3ccnc(O[C@H]4C[C@@H](NC(=O)C[C@@H]5N=C(c6ccc(Cl)cc6)c6c(sc(C)c6C)-n6c(C)nnc65)C4)n3)cn2)cc1 [Example 301] | 95 |
| 0.01 to 0.1 | Cc1ncsc1-c1ccc([C@H](C)NC(=O)[C@@H]2C[C@@H](O)CN2C(=O)[C@H](C(C)C)n2cc(-c3cc(O[C@H]4C[C@@H](NC(=O)C[C@@H]5N=C(c6ccc(Cl)cc6)c6c(sc(C)c6C)-n6c(C)nnc65)C4)ccn3)cn2)cc1 [Example 302] | 92 |
| > 1 | Cc1ncsc1-c1ccc([C@H](C)NC(=O)[C@@H]2C[C@@H](O)CN2C(=O)[C@@H](C(C)C)n2cc(-c3cc(O[C@H]4C[C@@H](NC(=O)C[C@@H]5N=C(c6ccc(Cl)cc6)c6c(sc(C)c6C)-n6c(C)nnc65)C4)ccn3)cn2)cc1 [Example 303] | 9.8 |
| 0.01 to 0.1 | Cc1ncsc1-c1ccc([C@H](C)NC(=O)[C@@H]2C[C@@H](O)CN2C(=O)[C@H](C(C)C)n2cc(-c3cc(O[C@H]4C[C@H](NC(=O)C[C@@H]5N=C(c6ccc(Cl)cc6)c6c(sc(C)c6C)-n6c(C)nnc65)C4)ccn3)cn2)cc1 [Example 304] | 95 |
| > 1 | Cc1ncsc1-c1ccc([C@H](C)NC(=O)[C@@H]2C[C@@H](O)CN2C(=O)[C@@H](C(C)C)n2cc(-c3cc(O[C@H]4C[C@H](NC(=O)C[C@@H]5N=C(c6ccc(Cl)cc6)c6c(sc(C)c6C)-n6c(C)nnc65)C4)ccn3)cn2)cc1 [Example 305] | 6.7 |
| > 1 | Cc1sc2c(c1C)C(c1ccc(Cl)cc1)=N[C@@H](CC(=O)N[C@H]1C[C@H](Oc3ccc(CC(=O)N[C@H](C(=O)N4C[C@H](O)C[C@H]4C(=O)N[C@@H](C)c4ccc(S(C)(=O)=O)cc4)C(C)(C)C)cc3)C1)c1nnc(C)n1-2 [Example 307] | 15 |
